From US20150283145A1, “TREATMENT OF HYPERPROLIFERATIVE AND PRE-CANCEROUS SKIN DISEASES USING AN INHIBITOR OF CBP/CATENIN” (PRISM Pharma Co., Ltd., priority 2012, published 2015) come the findings set out here.

Experiment [1] deals with human beta defensin 2 (HBD-2) gene expression. The experiment in a line: qPCR HBD-2 gene expression in psoriatic tissue model. Format: cell-based. The text has this: (§1) The psoriasis tissue model (SOR-300-FT; MatTek Corp., Ashland, Mass.) is a highly differentiated in vitro psoriatic tissue comprised of normal, human-derived keratinocytes and psoriatic fibroblasts which have been cultured to form a highly differentiated model of psoriatic tissue. Morphologically, the psoriatic tissue is of uniform thickness and is very similar to native psoriatic tissue in that it expresses increased levels of Ki67+ cells (hyperproliferation) and psoriasis-associated proteins such as psoriasin, elafin and human beta-defensin-2 (HBD-2) (Am. J. Pathol. 173:815-23, 2008). SOR-300-FT tissues (surface area=0.6 cm^2) were cultured on microporous membrane (pore size=0.4 μm) cell culture inserts. All psoriatic tissues were grown at the air liquid interface (ALI) in which the apical tissue layer is exposed to air. Use of the ALI induces the tissues to attain skin-like differentiation and allows direct topical application of test materials (similar to in vivo exposure).
(§2) Calcipotriol at 2.5, 0.25 and 0.025 μg/ml in medium was used as positive control. Ultrapure water was used as the vehicle control. The test article Compound C was applied to the basolateral (by additions to the culture medium) and apical (50 μl) side of the tissues. The effect of each three concentrations of the test article on tissue structure was examined using H&E stained histological slides. For gene analysis, RNA was isolated using standard RNA isolation protocol (MatTek Corporation). Isolated RNA was quantified and the integrity of the isolated RNA was checked. Quantitative RT-PCR was performed to determine expression levels of 5 psoriatic associated genes (elafin, HBD-2, psoriasin, p63, and Ki67).
(§3) SOR-300-FT™ tissues were transferred to 6-well plates containing 0.9 ml of pre-warmed assay medium and equilibrated to standard culture conditions (37° C., 5% CO2) for 1 hour. After the 1 hr equilibration, the tissues were re-fed with fresh medium as follow: 1) for the 24 hr time point, tissues were feed with 0.9 ml of medium and 2) for time points >24 hr, tissues were fed with 5 ml of culture medium by placing the cell culture inserts on top of the washers (Part # EPI-WSHR, MatTek Corporation). Next, 50 μl of the test article was applied topically to the psoriatic tissues (n=3) and the test article was added to the culture medium at concentrations of 100 μM, 30 μM, and 5 μM. At times 48 and 72 hours: a) the tissues were rinsed topically 3× with 300-400 μL of PBS, b) the inserts containing the tissues were held tightly with sterile forceps and the test article was rinsed gently by immersing the insert into PBS and decant medium from insert and c) fresh test article was re-applied to the tissue immediately after rinsing and decanting (50 μl, topically). Analysis was performed at t=48 hr (2× repeat applications) and t=96 hr (4× applications).
(§4) After t=48 (2× repeat exposure) and t=96 hr (4× exposure), N=3 tissues/treatment were used for RNA isolation for biomarker identification (gene expression levels). After the t=48 and t=96 hr, N=1 tissue/treatment was fixed in 10% formalin for histological analysis.
(§5) RNA Isolation: RNA was isolated from the tissues following MatTek's standardized RNA isolation protocol. The concentration, integrity, and purity of RNA was assessed using Experion System (Bio-Rad).
(§6) qPCR: cDNA was generated using the RT2 First Strand Kit (Qiagen, cat#330401). Relative gene expression was measured using RT2 SYBR Green qPCR Mastermix (Qiagen, cat#330502) and Qiagen RT2 primers. Analysis was carried out using Bio-Rad CFX software.
(§7) qPCR was performed to quantify the relative gene expression levels of 5 psoriatic associated gene biomarkers: 1) human beta defensin 2 (HBD-2), 2) psoriasin, 3) elafin and 4) p63, and 5) Ki67.

The next experiment relates to p63 gene expression. In words: qPCR p63 gene expression in psoriatic tissue model. The format is cell-based, human. As to conditions: for Downregulation of p63 gene: 2× or 4× repeat applications.
Description: as §1, §2, §3, §4, §5, §6, §7

A further experiment relates to elafin gene expression. The experiment in a line: qPCR elafin gene expression in psoriatic tissue model. The format is cell-based, human.
Description: as §1, §2, §3, §4, §5, §6, §7

The test system of experiment [2] is psoriasis tissue model (SOR-300-FT). In words: Tissue structure (H&E histology) of psoriasis tissue model. The format is cell-based, human.
Description: as §1, §2, §3, §4
Microscopic observations of histology samples were performed and effect of treatment on tissue morphology such as apical surface disruption, structural changes, and abnormal tissue staining was assessed.

The test system of experiment [3] is psoriasin gene expression. In words: qPCR psoriasin gene expression in psoriatic tissue model. Format: cell-based, human.
Description: as §1, §2, §3, §4, §5, §6, §7

For another experiment, the system named is Ki67 gene expression. The experiment in a line: qPCR Ki67 gene expression in psoriatic tissue model. As to conditions: for Downregulation of Ki67 gene: 2× or 4× repeat applications. Format: cell-based, human.
Description: as §1, §2
as §3, with “applications). […]” for “applications).”
as §5
qPCR: cDNA was generated using the RT2 First Strand Kit (Qiagen, cat#330401). Relative gene expression was measured using RT2 SYBR Green qPCR Mastermix (Qiagen, cat#330502) and Qiagen RT2 primers. […]
as §7

Setting [4] is: 0.025 ug/ml, 2× repeat applications.
[5] abbreviates: 0.025 ug/ml, 4× repeat applications.
Where [6] appears, read: 0.25 ug/ml, 2× application, 48 hr.
Setting [7] is: 2.5 μg/ml, 2× repeat applications.
[8] abbreviates: 2.5 μg/ml, 4× repeat applications.

For the compound `C[C@H]1[C@H]2N(C(=O)CN(C)N2C(=O)NCc2ccccc2)[C@@H](Cc2ccc(O)cc2)C(=O)N1Cc1cccc2cccnc12` [Compound C, (6S,9S,9aS)—N-benzyl-6-(4-hydroxybenzyl)-2,9-dimethyl-4,7-dioxo-8-(quinolin-8-ylmethyl)octahydro-1H-pyrazino[2,1-c][1,2,4]triazine-1-carboxamide], the “Downregulation of HBD-2 gene expression” value in experiment [1] (5 μM, 4× applications, 96 hr) was no less than 2 fold; in experiment [1] (30 μM, 4× applications, 96 hr), no less than 2 fold; in experiment [1] (100 μM, 4× applications, 96 hr), no less than 2 fold. Moreover, the “Downregulation of p63 gene” value in the experiment on p63 gene expression (5 μM) and in the experiment with p63 gene expression (30 μM) was “did not show downregulation” throughout. Also, the “Downregulation of the p63 gene” value in the experiment on p63 gene expression (100 μM, 2× repeat applications) was 1.6 fold. Besides, the “Downregulation of elafin gene expression” value in the experiment on elafin gene expression (5 μM, 4× applications, 96 hr) is on record as no less than 2 fold; in the experiment on elafin gene expression (30 μM, 4× applications, 96 hr) it was no less than 2 fold; in the experiment with elafin gene expression (100 μM, 4× applications, 96 hr) it was no less than 2 fold. Besides, the “Reduction in elafin gene expression level” value with elafin gene expression (30 μM, 48 hr (2× applications)) was found to be 2.2 fold. Besides, the “Microscopic observation of tissue histology” value is “minimal effect on tissue structure” in experiment [2] (5 μM, 2× repeat exposures); “the parabasal-apical layer of the tissue was sloughed off” in experiment [2] (5 μM, 4× repeat exposures); “minor structural damage” in experiment [2] (30 μM, 2× repeat exposures, 48 hr); “the suprabasal and apical layer was sloughed off” in experiment [2] (30 μM, 4× exposures, 96 hr); “structural damage to the differentiated cell layer” in experiment [2] (100 μM, 2× or 4× repeat exposures). In addition, the “Basal cells and tissue regeneration (histology)” value in experiment [2] (5 μM, 4× repeat exposures) is “the basal cells were intact and tissue regeneration was occurring”. Besides, the “Downregulation of psoriasin gene expression” value is on record as no less than 2 fold in experiment [3] (5 μM, 4× applications, 96 hr); no less than 2 fold in experiment [3] (30 μM, 4× applications, 96 hr); no less than 2 fold in experiment [3] (100 μM, 4× applications, 96 hr). Further, the “Downregulation of Ki67 gene” value with Ki67 gene expression (5 μM) and in the experiment on Ki67 gene expression (30 μM) was “did not show downregulation” each time. Further, the “Downregulation of Ki 67 gene expression” value in the experiment with Ki67 gene expression (100 μM, 2× and 4× applications (FIGS. 4A-B)) is reported as “No down regulation”.
With `C=C1/C(=C\C=C2/CCC[C@]3(C)[C@@H]([C@H](C)/C=C/[C@@H](O)C4CC4)CC[C@@H]23)C[C@@H](O)C[C@@H]1O` [Calcipotriol, reference compound], the “Downregulation (≧2 fold) of HBD-2 gene expression” value in experiment [1] (setting [4]) is “not after 2× repeat applications”. Also, the “Downregulation of HBD-2 gene expression” value in experiment [1] (setting [5]) and in experiment [1] (setting [7]) was no less than 2 fold throughout. The “Downregulation of HBD2 gene expression” value in experiment [1] (setting [6]) is no less than 2 fold. In experiment [1] (setting [8]), the “Reduction of HBD-2 gene expression” value is “significant reduction”. For the same compound, the “Downregulation of p63 gene expression” value with p63 gene expression (setting [6]) and with p63 gene expression (setting [7]) was no less than 2 fold each time. The “Decrease of p63 gene expression” value in the experiment with p63 gene expression (setting [8]) is on record as 1.7 fold. Further, the “Downregulation (≧2 fold) of elafin gene expression” value in the experiment with elafin gene expression (setting [4]) is listed as “not after 2× repeat applications”. Moreover, the “Downregulation of elafin gene expression” value with elafin gene expression (setting [5]) and in the experiment on elafin gene expression (setting [7]) was no less than 2 fold throughout. Besides, the “Reduction of elafin gene expression” value in the experiment with elafin gene expression (setting [8]) is on record as “significant reduction”. Also, the “Microscopic observation of tissue histology” value in experiment [2] (2.5, 0.25 and 0.025 μg/ml, 2× or 4× repeat exposures) is on record as “minimal-to-no evidence of structural damage”. For the same compound, the “Downregulation (≧2 fold) of psoriasin gene expression” value in experiment [3] (setting [4]) is “not after 2× repeat applications”. Also, the “Downregulation of psoriasin gene expression” value in experiment [3] (setting [5]) and in experiment [3] (setting [7]) was no less than 2 fold throughout. The “Reduction of psoriasin gene expression” value in experiment [3] (setting [8]) is “significant reduction”. Also, the “Downregulation of Ki 67 gene expression” value in the experiment with Ki67 gene expression (setting [7]) is no less than 2 fold. Moreover, in the experiment on Ki67 gene expression (setting [8]), the “Decrease of Ki67 gene expression” value was 1.6 fold.
